In patent US20200291018A1, “TAM KINASE INHIBITORS” (SYROS PHARMACEUTICALS, INC., priority 2017, published 2020):
Counter-ions that a name gives are not always drawn.

Experiments:
TYRO3 = target: T1, TYRO3 (Homo sapiens, UniProt Q06418); assay: TR-FRET kinase activity assay, TYRO3; type: biochemical; details: ATP at Km, 60 minutes
T1 sequence (Q06418 41-890): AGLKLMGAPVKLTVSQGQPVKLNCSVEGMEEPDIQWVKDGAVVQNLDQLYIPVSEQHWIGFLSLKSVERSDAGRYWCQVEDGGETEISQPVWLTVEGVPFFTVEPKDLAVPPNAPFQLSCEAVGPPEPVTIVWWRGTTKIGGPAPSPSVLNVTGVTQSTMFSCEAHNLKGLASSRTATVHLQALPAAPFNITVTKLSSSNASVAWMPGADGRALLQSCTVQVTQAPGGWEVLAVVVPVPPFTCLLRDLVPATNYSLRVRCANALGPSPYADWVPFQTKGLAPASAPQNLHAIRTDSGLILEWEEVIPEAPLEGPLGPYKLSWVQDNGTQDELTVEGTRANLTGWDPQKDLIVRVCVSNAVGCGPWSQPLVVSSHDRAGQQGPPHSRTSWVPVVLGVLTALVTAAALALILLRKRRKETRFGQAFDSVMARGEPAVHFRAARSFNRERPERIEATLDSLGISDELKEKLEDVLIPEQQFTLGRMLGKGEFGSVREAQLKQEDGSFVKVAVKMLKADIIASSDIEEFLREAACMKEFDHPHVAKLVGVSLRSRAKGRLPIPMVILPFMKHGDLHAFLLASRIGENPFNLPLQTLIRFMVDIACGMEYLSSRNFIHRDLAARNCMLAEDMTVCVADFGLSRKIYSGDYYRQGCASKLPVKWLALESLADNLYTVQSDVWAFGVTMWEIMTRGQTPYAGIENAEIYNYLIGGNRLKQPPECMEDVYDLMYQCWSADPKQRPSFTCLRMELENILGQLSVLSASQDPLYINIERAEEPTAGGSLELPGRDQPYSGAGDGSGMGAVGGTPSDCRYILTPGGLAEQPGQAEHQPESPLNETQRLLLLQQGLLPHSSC
Method in brief: (§1)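 Enzyme, fluorescent-labeled peptide substrate and compound were mixed, then ATP was added at each enzyme's Km. Buffer was 50 mM HEPES pH 7.5, 10 mM MgCl2, 1 mM EGTA, 0.01% Brij 35, 1 mM DTT at RT. After 60 min, EDTA quench and 30 min with Eu-anti-phosphotyrosine-site antibody; TR-FRET read gave IC50.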

MERTK = target: T2, MERTK (Homo sapiens, UniProt Q12866); assay: TR-FRET kinase activity assay, MERTK; type: biochemical; details: for IC50: TR-FRET activity assay, ATP at Km, 60 minutes, read-out: Mer IC50; for Mer/Flt3 ratio (FLT3 IC50/Mer IC50): ratio calculated as FLT3 IC50/Mer IC50
T2 sequence (Q12866 21-999): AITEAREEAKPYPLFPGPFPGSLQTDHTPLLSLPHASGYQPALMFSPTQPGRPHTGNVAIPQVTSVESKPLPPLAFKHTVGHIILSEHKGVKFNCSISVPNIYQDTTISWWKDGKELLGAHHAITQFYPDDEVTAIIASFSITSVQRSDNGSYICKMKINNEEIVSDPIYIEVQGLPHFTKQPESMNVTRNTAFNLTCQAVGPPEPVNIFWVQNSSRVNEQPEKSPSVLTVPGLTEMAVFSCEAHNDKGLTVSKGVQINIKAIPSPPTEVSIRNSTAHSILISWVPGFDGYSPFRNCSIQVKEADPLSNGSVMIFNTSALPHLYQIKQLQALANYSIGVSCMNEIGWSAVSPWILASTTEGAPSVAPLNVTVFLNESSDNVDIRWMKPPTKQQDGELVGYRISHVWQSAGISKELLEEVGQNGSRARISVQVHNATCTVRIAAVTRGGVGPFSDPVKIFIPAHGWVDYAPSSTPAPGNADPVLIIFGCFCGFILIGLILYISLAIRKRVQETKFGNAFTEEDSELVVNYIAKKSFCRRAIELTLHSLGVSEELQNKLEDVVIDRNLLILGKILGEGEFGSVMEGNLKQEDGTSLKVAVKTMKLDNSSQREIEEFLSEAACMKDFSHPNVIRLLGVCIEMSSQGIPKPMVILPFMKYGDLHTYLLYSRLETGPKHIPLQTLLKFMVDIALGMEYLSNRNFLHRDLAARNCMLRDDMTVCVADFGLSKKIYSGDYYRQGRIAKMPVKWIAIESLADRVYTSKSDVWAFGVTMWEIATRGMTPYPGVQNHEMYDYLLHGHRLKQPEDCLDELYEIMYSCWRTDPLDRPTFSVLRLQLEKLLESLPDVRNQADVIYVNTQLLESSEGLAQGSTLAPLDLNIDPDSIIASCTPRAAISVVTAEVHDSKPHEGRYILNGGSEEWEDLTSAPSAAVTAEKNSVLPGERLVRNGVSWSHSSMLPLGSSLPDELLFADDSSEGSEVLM
Method in brief: as §1

SMILES	IC50 (TYRO3) [µM]	IC50 (MERTK) [µM]	Mer/Flt3 ratio (FLT3 IC50/Mer IC50) (MERTK)
CCCCNc1ncc2c(=O)n(-c3ccc(CN4CCOCC4)cc3)cc([C@H]3CC[C@H](O)CC3)c2n1 [Compound 101]	0.1 to 1	≤ 0.1	+ (a ratio of >2.0 and <10)
CCCCNc1ncc2c(NCc3ccc(F)cc3)ncc([C@H]3CC[C@H](O)CC3)c2n1 [Compound 103, 4-[2-(butylamino)-5-[(4-fluorophenyl)methylamino]pyrido[4,3-d]pyrimidin-8-yl]cyclohexanol hydrochloride]	≤ 0.1	≤ 0.1	+ (a ratio of >2.0 and <10)
CCCCNc1ncc2c(OC3CCOCC3)ncc([C@H]3CC[C@H](O)CC3)c2n1 [Compound 104, (1r,4r)-4-(2-(butylamino)-5-((tetrahydro-2H-pyran-4-yl)oxy)pyrido[4,3-d]pyrimidin-8-yl)cyclohexanol]	≤ 0.1	≤ 0.1	+ (a ratio of >2.0 and <10)
CCCCNc1ncc2c(OC)ncc([C@H]3CC[C@H](O)CC3)c2n1 [Compound 127]	≤ 0.1	≤ 0.1	+ (a ratio of >2.0 and <10)
CCCC(C)Nc1ncc2c(=O)n(C3CCN(C(C)=O)CC3)cc([C@H]3CC[C@H](O)CC3)c2n1 (stereo partly drawn) [Compound 128, 6-(1-acetylpiperidin-4-yl)-8-((1r,4r)-4-hydroxycyclohexyl)-2-(pentan-2-ylamino)pyrido[4,3-d]pyrimidin-5(6H)-one hydrochloride]	≤ 0.1	≤ 0.1	+++ (a ratio of >100)
CCCCNc1ncc2c(OC3CCNCC3)ncc([C@H]3CC[C@H](O)CC3)c2n1 [Compound 129]	≤ 0.1	≤ 0.1	+ (a ratio of >2.0 and <10)
CCCCC[C@H](C)Nc1ncc2c(OC3CCNCC3)ncc([C@H]3CC[C@H](O)CC3)c2n1 [Compound 130]	≤ 0.1	≤ 0.1	+++ (a ratio of >100)
CCCCNc1ncc2c(OC3CCN(C)CC3)ncc([C@H]3CC[C@H](O)CC3)c2n1 [Compound 131]	≤ 0.1	≤ 0.1	+ (a ratio of >2.0 and <10)
O[C@H]1CC[C@H](c2cnc(OC3CCOCC3)c3cnc(NC4CCCC4)nc32)CC1 [Compound 132]	≤ 0.1	≤ 0.1	++ (a ratio of between 10 and 100)
CCCC(C)Nc1ncc2c(OC3CCOCC3)ncc([C@H]3CC[C@H](O)CC3)c2n1 (stereo partly drawn) [Compound 133]	≤ 0.1	≤ 0.1	+++ (a ratio of >100)
O[C@H]1CC[C@H](c2cnc(OC3CCOCC3)c3cnc(Nc4ccc(Cl)cc4)nc32)CC1 [Compound 134, (1r,4r)-4-(2-((4-chlorophenyl)amino)-5-((tetrahydro-2H-pyran-4-yl)oxy)pyrido[4,3-d]pyrimidin-8-yl)cyclohexan-1-ol]	≤ 0.1	≤ 0.1	+ (a ratio of >2.0 and <10)
CC(C)Nc1ncc2c(OC3CCNCC3)ncc([C@H]3CC[C@H](O)CC3)c2n1 [Compound 135]	≤ 0.1	≤ 0.1	+++ (a ratio of >100)
O[C@H]1CC[C@H](c2cnc(OC3CCNCC3)c3cnc(N[C@H]4CCOC4)nc32)CC1 [Compound 136]	≤ 0.1	≤ 0.1	++ (a ratio of between 10 and 100)
C[C@@H](CO)Nc1ncc2c(OC3CCOCC3)ncc([C@H]3CC[C@H](O)CC3)c2n1 [Compound 137]	0.1 to 1	0.1 to 1	++ (a ratio of between 10 and 100)
CCCC(C)Nc1ncc2c(=O)n(C3CCN(S(C)(=O)=O)CC3)cc([C@H]3CC[C@@H](O)CC3)c2n1 (stereo partly drawn) [Compound 138]	≤ 0.1	≤ 0.1	+++ (a ratio of >100)
CCCC(C)Nc1ncc2c(O[C@H]3CC[C@H](O)CC3)ncc([C@H]3CC[C@H](O)CC3)c2n1 (stereo partly drawn) [Compound 139]	≤ 0.1	≤ 0.1	+++ (a ratio of >100)
CCC(C)Nc1ncc2c(OC3CCOCC3)ncc([C@H]3CC[C@H](O)CC3)c2n1 (stereo partly drawn) [Compound 140]	≤ 0.1	≤ 0.1	+++ (a ratio of >100)
CCCC(C)Nc1ncc2c(OC3CCS(=O)(=O)CC3)ncc([C@H]3CC[C@H](O)CC3)c2n1 (stereo partly drawn) [Compound 141]	≤ 0.1	≤ 0.1	+++ (a ratio of >100)
CCCC(C)Nc1ncc2c(OC3CCS(=O)(=O)CC3)ncc([C@H]3CC[C@@H](O)CC3)c2n1 (stereo partly drawn) [Compound 142]	0.1 to 1	≤ 0.1	++ (a ratio of between 10 and 100)
CCCC(C)Nc1ncc2c(OC3CCN(S(C)(=O)=O)CC3)ncc([C@H]3CC[C@H](O)CC3)c2n1 (stereo partly drawn) [Compound 143]	≤ 0.1	≤ 0.1	+++ (a ratio of >100)
CC1(C)CC(Nc2ncc3c(OC4CCOCC4)ncc([C@H]4CC[C@H](O)CC4)c3n2)C1 [Compound 144]	0.1 to 1	≤ 0.1	+ (a ratio of >2.0 and <10)
COC[C@@H](C)Nc1ncc2c(OC3CCOCC3)ncc([C@H]3CC[C@H](O)CC3)c2n1 [Compound 145]	≤ 0.1	0.1 to 1	++ (a ratio of between 10 and 100)
CCCC(C)Nc1ncc2c(N(C)C3CCN(C)CC3)ncc([C@H]3CC[C@H](O)CC3)c2n1 (stereo partly drawn) [Compound 146]	≤ 0.1	≤ 0.1	++ (a ratio of between 10 and 100)
CCCC(C)Nc1ncc2c(OC3CCC(OC)CC3)ncc([C@H]3CC[C@H](O)CC3)c2n1 (stereo partly drawn) [Compound 147]	≤ 0.1	≤ 0.1	+++ (a ratio of >100)
CCCC(C)Nc1ncc2c(O[C@H]3CC[C@@H](O)CC3)ncc([C@H]3CC[C@H](O)CC3)c2n1 (stereo partly drawn) [Compound 148]	≤ 0.1	≤ 0.1	+++ (a ratio of >100)
CCCC(C)Nc1ncc2c(=O)n(C3CCN(CC(=O)N(C)C)CC3)cc([C@H]3CC[C@@H](O)CC3)c2n1 (stereo partly drawn) [Compound 149]	≤ 0.1	≤ 0.1	+++ (a ratio of >100)
CCCC(C)Nc1ncc2c(=O)n(C3CCN(CCOC)CC3)cc([C@H]3CC[C@H](O)CC3)c2n1 (stereo partly drawn) [Compound 150]	≤ 0.1	≤ 0.1	+++ (a ratio of >100)
CCCC(C)Nc1ncc2c(=O)n(C3CCN(CCC(=O)N(C)C)CC3)cc([C@H]3CC[C@H](O)CC3)c2n1 (stereo partly drawn) [Compound 151]	≤ 0.1	≤ 0.1	+++ (a ratio of >100)
CCC[C@@H](C)Nc1ncc2c(=O)n(C3CCNCC3)cc([C@H]3CC[C@H](O)CC3)c2n1 [Compound 152]	≤ 0.1	≤ 0.1	+++ (a ratio of >100)
